Laboratory results taken from article PMC9533837 (Antiviral Research, 2003).
Values after ≈ are worked out from the molar mass of the structure shown.

Key:
VAR isolate Eth17 = experiment: organism not typed; assay type: cell-based, variola; conditions: Vero, read-out: IC50, VAR isolate Eth17
VAR isolate Horn = experiment: organism not typed; assay type: cell-based, variola; conditions: Vero, read-out: IC50, VAR isolate Horn
VAC = conditions: cited from earlier work
VAR isolate Rumbec = experiment: organism not typed; assay type: cell-based, variola; conditions: Vero, read-out: IC50, VAR isolate Rumbec
VAR isolate Juba = experiment: organism not typed; assay type: cell-based, variola; conditions: Vero, read-out: IC50, VAR isolate Juba
all VAR isolates tested = experiment: organism not typed; assay type: cell-based, variola; conditions: Vero, read-out: IC50, VAR mean
VAR isolate V72-119 = experiment: organism not typed; assay type: cell-based, variola; conditions: Vero, read-out: IC50, VAR isolate V72-119
VAR isolate V70-222 = experiment: organism not typed; assay type: cell-based, variola; conditions: Vero, read-out: IC50, VAR isolate V70-222
VAR isolate Kali-Muthu = experiment: organism not typed; assay type: cell-based, variola; conditions: Vero, read-out: IC50, VAR isolate Kali-Muthu
VAR isolate Jee = experiment: organism not typed; assay type: cell-based, variola; conditions: Vero, read-out: IC50, VAR isolate Jee
[1] = system: VAC, including recombinant VAC; conditions: mouse, in vivo; cited from earlier work

| Structure (SMILES) | IC50 (VAR isolate Eth17) | IC50 (VAR isolate Horn) | activity in vivo, VAC mouse model (VAC) | IC50 (VAR isolate Rumbec) | IC50 (VAR isolate Juba) | IC50 (all VAR isolates tested) | IC50 (VAR isolate V72-119) | IC50 (VAR isolate V70-222) | IC50 (VAR isolate Kali-Muthu) | IC50 (VAR isolate Jee) | activity in murine tailpox models [1] |
| --- | --- | --- | --- | --- | --- | --- | --- | --- | --- | --- | --- |
| Nc1ccn(C[C@@H](CO)OCP(=O)(O)O)c(=O)n1 [Cidofovir, 1-[(S)-3-hydroxy-2-(phosphonomethoxy)-propyl]cytosine] | 11 µg/mL (≈ 39.4 µM) | 11 µg/mL (≈ 39.4 µM) | active in vivo | 10 µg/mL (≈ 35.8 µM) | 14 µg/mL (≈ 50.1 µM) | 12 ± 1 µg/mL (≈ 43 µM) | 10 µg/mL (≈ 35.8 µM) | 12 µg/mL (≈ 43 µM) | 11 µg/mL (≈ 39.4 µM) | 10 µg/mL (≈ 35.8 µM) |  |
| NC(=O)c1ncn([C@@H]2O[C@H](CO)[C@@H](O)[C@H]2O)n1 [Ribavirin] | 61 µg/mL (≈ 250 µM) | 28 µg/mL (≈ 115 µM) |  |  |  | 50 ± 8 µg/mL (≈ 205 µM) | 35 µg/mL (≈ 143 µM) | 221 µg/mL (≈ 905 µM) |  | 47 µg/mL (≈ 192 µM) | active |
